Assays:
PDE10A enzyme = target: T1, PDE10A enzyme (Homo sapiens, UniProt Q9Y233); test: PDE10A inhibition assay; format: biochemical; details: 3H-labelled cAMP substrate 5 nM, SPA beads, one hr at room temperature
T1 construct: made in house; host or cells: E. coli BL21(DE3)
Description: Active PDE10A enzyme is prepared in a number of ways for use in PDE assays (Loughney, K. et al. Gene 1999, 234, 109-117; Fujishige, K. et al. Eur J Biochem. 1999, 266, 1118-1127 and Soderling, S. et al. Proc. Natl. Acad. Sci. 1999, 96, 7071-7076). PDE10A can be expressed as full-length proteins or as truncated proteins, as long as they express the catalytic domain. PDE10A can be prepared in different cell types, for example insect cells or E. coli. An example of a method to obtain catalytically active PDE10A is as follows: The catalytic domain of human PDE10A (amino acids 440-779 from the sequence with accession number NP 006652) is amplified from total human brain total RNA by standard RT-PCR and is cloned into the BamH1 and Xho1 sites of the pET28a vector (Novagen). Expression in coil is performed according to standard protocols. Briefly, the expression plasmids are transformed into the BL21(DE3) E. coli strain, and 50 mL cultures inoculated with the cells allowed to grow to an OD600 of 0.4-0.6 before protein expression is induced with 0.5mM IPTG. Following induction, the cells are incubated overnight at room temperature, after which the cells are collected by centrifugation. Cells expressing PDE10A are resuspended in 12 mL (50 mM TRIS-HCl-pH8.0, 1 mM MgCl2 and protease inhibitors). The cells are lysed by sonication, and after all cells are lysed, TritonX100 is added according to Novagen protocols.
A PDE10A assay may for example, be performed as follows: The assay is performed in 60 uL samples containing a fixed amount of the relevant PDE enzyme (sufficient to convert 20-25% of the cyclic nucleotide substrate), a buffer (50 mM HEPES7.6; 10 mM MgCl2; 0.02% Tween20), 0.1 mg/mI BSA, 225 pCi of ^3H-labelled cyclic nucleotide substrate, tritium labeled cAMP to a final concentration of 5 nM and varying amounts of inhibitors. Reactions are initiated by addition of the cyclic nucleotide substrate, and reactions are allowed to proceed for one hr at room temperature before being terminated through mixing with 15 uL 8 mg/mL yttrium silicate SPA beads (Amersham). The beads are allowed to settle for one hr in the dark before the plates are counted in a Wallac 1450 Microbeta counter. The measured signal can be converted to activity relative to an uninhibited control (100%) and IC50 values can be calculated using the XIfit extension to EXCEL.

rats [1] = details: cited from earlier work
rats [2] = details: cited from earlier work; remark: listed apart in the source
rats [3] = details: cited from earlier work; remark: listed apart in the source

T1 sequence (Q9Y233 716-1055): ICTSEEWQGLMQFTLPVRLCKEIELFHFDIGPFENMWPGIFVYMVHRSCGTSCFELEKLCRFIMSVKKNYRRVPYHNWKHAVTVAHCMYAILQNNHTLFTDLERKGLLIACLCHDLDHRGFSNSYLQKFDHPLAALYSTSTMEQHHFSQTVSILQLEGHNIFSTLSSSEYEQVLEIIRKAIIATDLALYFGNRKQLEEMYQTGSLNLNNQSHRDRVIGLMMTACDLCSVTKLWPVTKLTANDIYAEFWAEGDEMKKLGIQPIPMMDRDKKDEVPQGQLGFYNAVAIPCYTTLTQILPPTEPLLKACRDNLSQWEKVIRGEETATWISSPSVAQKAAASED

SMILES | IC50 (PDE10A enzyme) [nM] | other results
COc1ccc(Cc2nccc3cc(OC)c(OC)cc23)cc1OC [Papaverine, papaverine] | – | catalepsy on its own (rats [1]; papaverine alone): did not cause catalepsy; cataleptic effect of the D2 receptor antagonist haloperidol (rats [1]; together with haloperidol): potentiated; hyperactivity induced by PCP (rats [2]): reduced hyperactivity; reduction of amphetamine induced hyperactivity (rats [3]): insignificant
CCc1ccc(C)n2nc(CCc3nc(-c4ccccc4)nn3CCC#N)nc12 [3-{5-[2-(8-Ethyl-5-methyl-[1,2,4]triazolo[1,5-a]pyridin-2-yl)-ethyl]-3-phenyl-[1,2,4]triazol-1-yl}-propionitrile] | 14 | –
Cc1ncc(C)n2nc(CCc3nc(-c4ncco4)nn3C)nc12 [5,8-Dimethyl-2-[2-(2-methyl-5-oxazol-2-yl-2H-[1,2,4]triazol-3-yl)-ethyl]-[1,2,4]triazolo[1,5-a]pyrazine] | 120 | –
Cc1ncc(C)n2nc(CCc3nc(-c4ccco4)nn3C)nc12 [2-[2-(5-Furan-2-yl-2-methyl-2H-[1,2,4]triazol-3-yl)-ethyl]-5,8-dimethyl-[1,2,4]triazolo[1,5-a]pyrazine] | 4.6 | –
Cc1ncc(C)n2nc(CCc3nc(-c4ccsc4)nn3C)nc12 [5,8-Dimethyl-2-[2-(2-methyl-5-thiophen-3-yl-2H-[1,2,4]triazol-3-yl)-ethyl]-[1,2,4]triazolo[1,5-a]pyrazine] | 5.3 | –

Now from value to compound, other results behind:

IC50 (PDE10A enzyme) [nM] | SMILES | other results
10 | CCCn1nc(-c2ccccc2)nc1CCc1nc2c(CC)ccc(C)n2n1 [8-Ethyl-5-methyl-2-[2-(5-phenyl-2-propyl-2H-[1,2,4]triazol-3-yl)-ethyl]-[1,2,4]triazolo[1,5-a]pyridine] | melting point: 141 to 143 °C
37 | CCCn1nc(-c2ccccc2)nc1CCc1nc2c(OC)ccc(C)n2n1 [8-Methoxy-5-methyl-2-[2-(5-phenyl-2-propyl-2H-[1,2,4]triazol-3-yl)-ethyl]-[1,2,4]triazolo[1,5-a]pyridine] | –
62 | COCCn1nc(-c2ccccc2)nc1CCc1nc2c(OC)ccc(C)n2n1 [8-Methoxy-2-{2-[2-(2-methoxy-ethyl)-5-phenyl-2H-[1,2,4]triazol-3-yl]-ethyl}-5-methyl-[1,2,4]triazolo[1,5-a]pyridine] | –

Reference: patent US8785653B2, “(3-aryl-1H-1,2,4-triazol-5-yl)-linked heterocycle derivatives” (H. Lundbeck A/S, priority 2009, dated 2014)
